# Measurements published in publication PMC5218480 (PLoS ONE, 2017).
# Tested on: MV-4-11 cells
# Test: Gene expression microarray analysis (Affymetrix PrimeView) and GSEA
# Format: cell-based, human
# Parameters: RFU PODN (11730768_x_at) / Fold change /veh PODN (11730768_x_at) / RFU LINC00158 (11744669_a_at) / Fold change /veh LINC00158 (11744669_a_at) / RFU DUSP10 (11751237_a_at) / Fold change /veh DUSP10 (11751237_a_at) / RFU ID3 (11757404_x_at) / Fold change /veh ID3 (11757404_x_at) / RFU PLEKHG5 (11737974_s_at) / Fold change /veh PLEKHG5 (11737974_s_at) / RFU LRRC4B (11730491_at) / Fold change /veh LRRC4B (11730491_at) / RFU GIMAP4 (11747438_a_at) / Fold change /veh GIMAP4 (11747438_a_at) / RFU KRT8 (11758183_x_at) / Fold change /veh KRT8 (11758183_x_at) / RFU CNN1 (11734310_a_at) / Fold change /veh CNN1 (11734310_a_at) / RFU VPS37D (11726825_at) / Fold change /veh VPS37D (11726825_at) / RFU C10orf10 (11716522_x_at) / Fold change /veh C10orf10 (11716522_x_at) / RFU KIR2DL2 /// KIR2DL4 /// KIR2DL5A /// KIR2DL5B /// KIR2DS1 /// KIR2DS2 /// KIR2DS3 /// KIR2DS4 /// KIR3DL3 /// KIR3DL3 /// KIR3DS1 (11738374_at) / Fold change /veh KIR2DL2 /// KIR2DL4 /// KIR2DL5A /// KIR2DL5B /// KIR2DS1 /// KIR2DS2 /// KIR2DS3 /// KIR2DS4 /// KIR3DL3 /// KIR3DL3 /// KIR3DS1 (11738374_at) / RFU C1QL1 (11718748_at) / Fold change /veh C1QL1 (11718748_at) / RFU TMPRSS4 (11747572_a_at) / Fold change /veh TMPRSS4 (11747572_a_at) / RFU HAMP (11756126_x_at) / Fold change /veh HAMP (11756126_x_at) / RFU RNFT2 (11725882_a_at) / Fold change /veh RNFT2 (11725882_a_at) / RFU NR4A2 (11747474_a_at) / Fold change /veh NR4A2 (11747474_a_at) / RFU ABCC12 (11746883_a_at) / Fold change /veh ABCC12 (11746883_a_at) / RFU TMEM136 (11760407_x_at) / Fold change /veh TMEM136 (11760407_x_at) / RFU CLDN22 /// WWC2 (11732394_at) / Fold change /veh CLDN22 /// WWC2 (11732394_at) / RFU HLA-DPB1 (11760878_x_at) / Fold change /veh HLA-DPB1 (11760878_x_at) / RFU SPINT1 (11716480_a_at) / Fold change /veh SPINT1 (11716480_a_at) / RFU GAP43 (11754022_s_at) / Fold change /veh GAP43 (11754022_s_at) / RFU A4GNT (11735810_at) / Fold change /veh A4GNT (11735810_at) / RFU PRB3 (11715151_x_at) / Fold change /veh PRB3 (11715151_x_at) / RFU TUBB4B (11761932_at) / Fold change /veh TUBB4B (11761932_at) / RFU CAPN14 (11732068_a_at) / Fold change /veh CAPN14 (11732068_a_at) / RFU TMCC2 (11721928_a_at) / Fold change /veh TMCC2 (11721928_a_at) / RFU IRGQ (11745062_a_at) / Fold change /veh IRGQ (11745062_a_at) / RFU FAM174B (11720279_a_at) / Fold change /veh FAM174B (11720279_a_at) / RFU TMPRSS4 (11748680_a_at) / Fold change /veh TMPRSS4 (11748680_a_at) / RFU FAM212B (11763350_a_at) / Fold change /veh FAM212B (11763350_a_at) / RFU PLEKHG5 (11743358_a_at) / Fold change /veh PLEKHG5 (11743358_a_at) / RFU ZSCAN30 (11745921_a_at) / Fold change /veh ZSCAN30 (11745921_a_at) / RFU CMKLR1 (11741424_a_at) / Fold change /veh CMKLR1 (11741424_a_at) / RFU LOC101060620 /// MAPK8IP1 (11723275_at) / Fold change /veh LOC101060620 /// MAPK8IP1 (11723275_at) / RFU SPTSSB (11747773_x_at) / Fold change /veh SPTSSB (11747773_x_at) / RFU PRSS12 (11739890_at) / Fold change /veh PRSS12 (11739890_at) / RFU BIN1 (11741810_x_at) / Fold change /veh BIN1 (11741810_x_at) / RFU WNT11 (11732464_a_at) / Fold change /veh WNT11 (11732464_a_at) / RFU C10orf10 (11716521_a_at) / Fold change /veh C10orf10 (11716521_a_at) / RFU C5orf56 (11738089_at) / Fold change /veh C5orf56 (11738089_at) / RFU CYB561 (11721691_x_at) / Fold change /veh CYB561 (11721691_x_at) / RFU ANKRD19P (11752326_a_at) / Fold change /veh ANKRD19P (11752326_a_at) / RFU OR2T12 /// OR2T33 /// OR2T8 (11738714_s_at) / Fold change /veh OR2T12 /// OR2T33 /// OR2T8 (11738714_s_at) / RFU VCAN (11748164_a_at) / Fold change /veh VCAN (11748164_a_at) / RFU JSRP1 (11732532_at) / Fold change /veh JSRP1 (11732532_at) / RFU KRTAP10-11 (11738290_x_at) / Fold change /veh KRTAP10-11 (11738290_x_at) / RFU MYO3A (11730013_a_at) / Fold change /veh MYO3A (11730013_a_at) / RFU EBF3 (11725865_a_at) / Fold change /veh EBF3 (11725865_a_at) / RFU CAMK2N1 (11719241_x_at) / Fold change /veh CAMK2N1 (11719241_x_at) / RFU C5orf56 (11738088_a_at) / Fold change /veh C5orf56 (11738088_a_at) / RFU OLFML3 (11715873_a_at) / Fold change /veh OLFML3 (11715873_a_at) / RFU LOC100653217 /// NTM (11731650_a_at) / Fold change /veh LOC100653217 /// NTM (11731650_a_at) / RFU MAPK11 (11762145_a_at) / Fold change /veh MAPK11 (11762145_a_at) / RFU FIZ1 (11724087_x_at) / Fold change /veh FIZ1 (11724087_x_at) / RFU OASL (11726364_x_at) / Fold change /veh OASL (11726364_x_at) / RFU SOX15 (11748057_x_at) / Fold change /veh SOX15 (11748057_x_at) / RFU CD79A (11719716_a_at) / Fold change /veh CD79A (11719716_a_at) / RFU HIST1H1D (11736915_at) / Fold change /veh HIST1H1D (11736915_at) / RFU CASKIN2 (11723855_a_at) / Fold change /veh CASKIN2 (11723855_a_at) / RFU LOC730098 (11760151_x_at) / Fold change /veh LOC730098 (11760151_x_at) / RFU OR4N2 (11742367_at) / Fold change /veh OR4N2 (11742367_at) / RFU PRRT2 (11749266_a_at) / Fold change /veh PRRT2 (11749266_a_at) / RFU SNX32 (11753110_a_at) / Fold change /veh SNX32 (11753110_a_at) / RFU CDHR5 (11726645_a_at) / Fold change /veh CDHR5 (11726645_a_at) / RFU RCAN1 (11760418_a_at) / Fold change /veh RCAN1 (11760418_a_at) / RFU FAM167A (11723789_a_at) / Fold change /veh FAM167A (11723789_a_at) / RFU FAM26E (11764081_at) / Fold change /veh FAM26E (11764081_at) / RFU ISYNA1 (11749810_s_at) / Fold change /veh ISYNA1 (11749810_s_at) / RFU ACY1 (11761880_at) / Fold change /veh ACY1 (11761880_at) / RFU 11764098_at / Fold change /veh 11764098_at / RFU SAMD14 (11745864_x_at) / Fold change /veh SAMD14 (11745864_x_at) / RFU NPB (11741838_a_at) / Fold change /veh NPB (11741838_a_at) / RFU TMPRSS6 (11731388_a_at) / Fold change /veh TMPRSS6 (11731388_a_at) / RFU KRTAP10-2 (11738614_at) / Fold change /veh KRTAP10-2 (11738614_at) / RFU ARHGAP8 /// PRR5-ARHGAP8 (11727945_x_at) / Fold change /veh ARHGAP8 /// PRR5-ARHGAP8 (11727945_x_at) / RFU KRTAP5-7 /// NADSYN1 (11734609_at) / Fold change /veh KRTAP5-7 /// NADSYN1 (11734609_at) / RFU RASL12 (11751679_a_at) / Fold change /veh RASL12 (11751679_a_at) / RFU CDKN2B (11736163_a_at) / Fold change /veh CDKN2B (11736163_a_at) / RFU PRF1 (11729649_at) / Fold change /veh PRF1 (11729649_at) / RFU, ZNF638 /// ZNF638-IT1 / Fold change vs veh, ZNF638 /// ZNF638-IT1 / RFU, PANK3 / Fold change vs veh, PANK3 / RFU, SH3YL1 / Fold change vs veh, SH3YL1 / RFU, ZEB2 / Fold change vs veh, ZEB2 / RFU, NRIP1 / Fold change vs veh, NRIP1 / RFU, PTTG1IP / Fold change vs veh, PTTG1IP / RFU, CAPN2 / Fold change vs veh, CAPN2 / RFU, MED14 / Fold change vs veh, MED14 / RFU, SNORA58 / Fold change vs veh, SNORA58 / RFU, C1orf63 / Fold change vs veh, C1orf63 / RFU, LRRFIP1 / Fold change vs veh, LRRFIP1 / RFU, NDUFAF7 / Fold change vs veh, NDUFAF7 / RFU, SLC12A2 / Fold change vs veh, SLC12A2 / RFU, IBTK / Fold change vs veh, IBTK / RFU, ESF1 / Fold change vs veh, ESF1 / Fold change vs veh, TMEM50B / RFU, TAOK1 / Fold change vs veh, TAOK1 / RFU, ACBD3 / Fold change vs veh, ACBD3 / RFU, TMA16 / Fold change vs veh, TMA16 / RFU, RWDD3 / Fold change vs veh, RWDD3 / RFU, BCAT1 / Fold change vs veh, BCAT1 / RFU, EDEM3 / Fold change vs veh, EDEM3 / RFU, TMEM33 / Fold change vs veh, TMEM33 / RFU, WDR75 / Fold change vs veh, WDR75 / RFU, AHCTF1 / Fold change vs veh, AHCTF1 / RFU, TFRC / Fold change vs veh, TFRC / RFU, ZDHHC17 / Fold change vs veh, ZDHHC17 / RFU, NOM1 / Fold change vs veh, NOM1 / RFU, ARL8B / Fold change vs veh, ARL8B / RFU, ZBTB11 / Fold change vs veh, ZBTB11 / RFU, TAMM41 / Fold change vs veh, TAMM41 / RFU, KIAA1704 /// LOC100996395 / Fold change vs veh, KIAA1704 /// LOC100996395 / RFU, ING1 / Fold change vs veh, ING1 / RFU, TRMT61B / Fold change vs veh, TRMT61B / RFU, FUBP3 / Fold change vs veh, FUBP3 / RFU, TP53 / Fold change vs veh, TP53 / RFU, TNKS2 / Fold change vs veh, TNKS2 / RFU, ZFP14 / Fold change vs veh, ZFP14 / RFU, ACTR2 / Fold change vs veh, ACTR2 / RFU, PPP3R1 / Fold change vs veh, PPP3R1 / RFU, PIK3R1 / Fold change vs veh, PIK3R1 / RFU, HNRNPA1 / Fold change vs veh, HNRNPA1 / RFU, RNF170 / Fold change vs veh, RNF170 / RFU, ZNF28 / Fold change vs veh, ZNF28 / RFU, RNGTT / Fold change vs veh, RNGTT / RFU, OGT / Fold change vs veh, OGT / RFU, BRD1 / Fold change vs veh, BRD1 / RFU, MARS / Fold change vs veh, MARS / RFU, ZNF655 / Fold change vs veh, ZNF655 / RFU, FAHD1 / Fold change vs veh, FAHD1 / RFU, BDP1 / Fold change vs veh, BDP1 / RFU, LRRCC1 / Fold change vs veh, LRRCC1 / RFU, ARID1A / Fold change vs veh, ARID1A / RFU, ZNF146 / Fold change vs veh, ZNF146 / RFU, ZNF330 / Fold change vs veh, ZNF330 / RFU, GPN3 / Fold change vs veh, GPN3 / RFU, C9orf123 / Fold change vs veh, C9orf123 / RFU, N4BP2L2 / Fold change vs veh, N4BP2L2 / RFU, ARFIP1 / Fold change vs veh, ARFIP1 / RFU, FAM179B / Fold change vs veh, FAM179B / RFU, BCL10 / Fold change vs veh, BCL10 / RFU, UHRF1BP1L / Fold change vs veh, UHRF1BP1L / RFU, BET1 / Fold change vs veh, BET1 / RFU, CNOT2 / Fold change vs veh, CNOT2 / RFU, ZNF268 / Fold change vs veh, ZNF268 / Fold change vs veh, ZNF507 / RFU, DGCR2 / Fold change vs veh, DGCR2 / RFU, WDSUB1 / Fold change vs veh, WDSUB1 / Fold change vs veh, HSP90B1 /// MIR3652 / RFU, ADSS / Fold change vs veh, ADSS / RFU, GK / Fold change vs veh, GK / RFU, ZNF148 / Fold change vs veh, ZNF148 / RFU, TAF9 / Fold change vs veh, TAF9 / RFU, SLC1A5 / Fold change vs veh, SLC1A5 / RFU, SLMO2 / Fold change vs veh, SLMO2 / RFU, ABCC4 / Fold change vs veh, ABCC4 / RFU, LOC101060439 /// RAP1B / Fold change vs veh, LOC101060439 /// RAP1B / RFU, RFX7 / Fold change vs veh, RFX7 / RFU, GTPBP10 / Fold change vs veh, GTPBP10 / RFU, CNEP1R1 / Fold change vs veh, CNEP1R1 / RFU, BIVM-ERCC5 /// ERCC5 / Fold change vs veh, BIVM-ERCC5 /// ERCC5 / RFU, ILF3 / Fold change vs veh, ILF3 / RFU 11762660_at / Fold change /veh 11762660_at / RFU VCAN (11757783_s_at) / Fold change /veh VCAN (11757783_s_at) / RFU DDX43 (11728927_at) / Fold change /veh DDX43 (11728927_at) / RFU KRT8 (11758188_x_at) / Fold change /veh KRT8 (11758188_x_at) / RFU NKD1 (11759106_at) / Fold change /veh NKD1 (11759106_at) / RFU SRD5A1 (11742802_a_at) / Fold change /veh SRD5A1 (11742802_a_at) / RFU TPSAB1 /// TPSB2 (11721975_s_at) / Fold change /veh TPSAB1 /// TPSB2 (11721975_s_at) / RFU GSTM3 (11746129_a_at) / Fold change /veh GSTM3 (11746129_a_at) / RFU IL23R (11737362_x_at) / Fold change /veh IL23R (11737362_x_at) / RFU TMEM51 (11727254_a_at) / Fold change /veh TMEM51 (11727254_a_at) / RFU PIWIL2 (11732686_x_at) / Fold change /veh PIWIL2 (11732686_x_at) / RFU ORM1 (11744905_x_at) / Fold change /veh ORM1 (11744905_x_at) / RFU CCDC152 (11743942_at) / Fold change /veh CCDC152 (11743942_at) / RFU ECM1 (11717891_a_at) / Fold change /veh ECM1 (11717891_a_at) / RFU IL23R (11748794_a_at) / Fold change /veh IL23R (11748794_a_at) / RFU TNFAIP8L3 (11732012_x_at) / Fold change /veh TNFAIP8L3 (11732012_x_at) / RFU MBOAT4 (11741988_at) / Fold change /veh MBOAT4 (11741988_at) / RFU 11764193_at / Fold change /veh 11764193_at / RFU TMEM53 (11763286_at) / Fold change /veh TMEM53 (11763286_at) / RFU MAGEB2 (11727129_at) / Fold change /veh MAGEB2 (11727129_at) / RFU TMEM200A (11744735_a_at) / Fold change /veh TMEM200A (11744735_a_at) / RFU CCDC152 (11751479_a_at) / Fold change /veh CCDC152 (11751479_a_at) / RFU FAM211A (11726209_a_at) / Fold change /veh FAM211A (11726209_a_at) / RFU RGS16 (11746705_a_at) / Fold change /veh RGS16 (11746705_a_at) / RFU VCAN (11755009_s_at) / Fold change /veh VCAN (11755009_s_at) / RFU RHOB (11743442_s_at) / Fold change /veh RHOB (11743442_s_at) / RFU RGS16 (11720943_a_at) / Fold change /veh RGS16 (11720943_a_at) / RFU RGS16 (11720944_at) / Fold change /veh RGS16 (11720944_at) / RFU, VPS4B / Fold change vs veh, VPS4B / RFU, CREB1 / Fold change vs veh, CREB1 / RFU, DNAJC13 / Fold change vs veh, DNAJC13 / RFU, GNAQ / Fold change vs veh, GNAQ / RFU, CDK5R1 / Fold change vs veh, CDK5R1 / RFU, ZRANB3 / Fold change vs veh, ZRANB3 / RFU, CUL4A / Fold change vs veh, CUL4A / RFU, CCNY / Fold change vs veh, CCNY / RFU, UFL1 / Fold change vs veh, UFL1 / RFU, COG3 / Fold change vs veh, COG3 / RFU, DIAPH2 / Fold change vs veh, DIAPH2 / RFU, SKA2 / Fold change vs veh, SKA2 / RFU, AFF3 / Fold change vs veh, AFF3 / RFU, LMF1 / Fold change vs veh, LMF1 / RFU, IPO11 / Fold change vs veh, IPO11 / RFU, DFFB / Fold change vs veh, DFFB / RFU, FOXP1 / Fold change vs veh, FOXP1 / RFU, CARD8 / Fold change vs veh, CARD8 / RFU, STRN3 / Fold change vs veh, STRN3 / RFU, ADK / Fold change vs veh, ADK / RFU, RASSF2 / Fold change vs veh, RASSF2 / RFU, WIPF1 / Fold change vs veh, WIPF1 / RFU, LARP1B / Fold change vs veh, LARP1B / RFU, RASA1 / Fold change vs veh, RASA1 / RFU, RB1 / Fold change vs veh, RB1 / RFU, PPFIA1 / Fold change vs veh, PPFIA1 / RFU, MAT2A / Fold change vs veh, MAT2A / RFU, CCT5 / Fold change vs veh, CCT5 / RFU, WDR92 / Fold change vs veh, WDR92 / RFU, CUX1 / Fold change vs veh, CUX1 / RFU, TTC7A / Fold change vs veh, TTC7A / RFU, TMEM135 / Fold change vs veh, TMEM135 / RFU, DEPTOR / Fold change vs veh, DEPTOR / RFU, CPM / Fold change vs veh, CPM / RFU, DNAJB6 / Fold change vs veh, DNAJB6 / RFU, CACNA2D3 / Fold change vs veh, CACNA2D3 / RFU, DTX4 / Fold change vs veh, DTX4 / RFU, TFCP2 / Fold change vs veh, TFCP2 / RFU, GMCL1 /// GMCL1P1 / Fold change vs veh, GMCL1 /// GMCL1P1 / RFU, AEBP2 / Fold change vs veh, AEBP2 / RFU, SNHG1 /// SNORD22 /// SNORD25 /// SNORD26 /// SNORD27 /// SNORD28 /// SNORD29 /// SNORD31 / Fold change vs veh, SNHG1 /// SNORD22 /// SNORD25 /// SNORD26 /// SNORD27 /// SNORD28 /// SNORD29 /// SNORD31 / Fold change (Aza/veh), C12orf56 (ProbeSet 11735607_a_at) / Fold change (ACY-1035/veh), C12orf56 (ProbeSet 11735607_a_at) / Fold change (Aza/veh), FGFR1OP (ProbeSet 11751329_s_at) / Fold change (ACY-1035/veh), FGFR1OP (ProbeSet 11751329_s_at) / Fold change (Aza/veh), VPS36 (ProbeSet 11739960_a_at) / Fold change (ACY-1035/veh), VPS36 (ProbeSet 11739960_a_at) / RFU SYPL1 (11715823_x_at) / Fold change /veh SYPL1 (11715823_x_at) / RFU IGFBP7 (11715501_s_at) / Fold change /veh IGFBP7 (11715501_s_at) / RFU REEP3 (11722064_at) / Fold change /veh REEP3 (11722064_at) / RFU IGLL1 (11728026_x_at) / Fold change /veh IGLL1 (11728026_x_at): dose or concentration left out as unconfirmed
# Details: ProbeSet 11717914_a_at; LIST B
smiles,measurement,value
Nc1ccc(-c2cccs2)cc1NC(=O)c1ccc2c(c1)cc(C1CC1)n2CCN1CCOCC1 [ACY-1035],"RFU, BIVM-ERCC5 /// ERCC5",177.23 RFU
